Experimental data published in patent US20240368120A1 (Terns Pharmaceuticals, Inc., priority 2023, published 2024).

Biological target: T1, human GLP-1R receptor (Homo sapiens, UniProt P43220)
T1 construct: expressed in transfected cells
Assay: GLP-1R low expression cell assay (cAMP TR-FRET, CHO-K1_hGLP-1Rlow_clone10 cells)
Assay type: cell-based
Details: for EC50: cAMP TR-FRET, 30 min at 25° C.
Procedure, shortened: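 Readout is cAMP TR-FRET after 30 min compound stimulation at 25 °C of a low-GLP-1R-expressing CHO-K1 clone (1,000 cells/well), with 10-point 3-fold serial dilutions. Percent activation versus a control GLP-1 peptide, from duplicates, was Hill-fitted to give EC50.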

[1] = maximum activation relative to control GLP-1 peptide agonist

T1 sequence (P43220 24-463): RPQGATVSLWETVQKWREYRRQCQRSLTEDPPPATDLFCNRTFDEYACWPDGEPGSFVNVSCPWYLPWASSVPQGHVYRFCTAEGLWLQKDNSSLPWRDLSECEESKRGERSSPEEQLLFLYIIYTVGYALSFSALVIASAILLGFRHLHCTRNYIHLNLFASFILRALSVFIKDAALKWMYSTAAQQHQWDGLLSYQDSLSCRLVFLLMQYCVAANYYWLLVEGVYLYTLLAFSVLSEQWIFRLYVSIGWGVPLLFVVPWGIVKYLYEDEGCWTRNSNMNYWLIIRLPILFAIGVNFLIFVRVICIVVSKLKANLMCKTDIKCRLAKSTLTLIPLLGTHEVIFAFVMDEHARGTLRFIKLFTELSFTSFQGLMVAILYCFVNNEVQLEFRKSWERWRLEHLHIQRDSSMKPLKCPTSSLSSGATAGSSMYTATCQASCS

Compound | EC50 | Emax [1] | GLP-1R Low Expression Cell Assay Emax (%) [1]
CCOc1cc(C(=O)NS(C)(=O)=O)cc2c1nc(CN1CCC(c3cccc(OCc4ccc(C#N)cc4F)n3)CC1)n2C [Compound 261, 2-((4-(6-((4-Cyano-2-fluorobenzyl)oxy)pyridin-2-yl)piperidin-1-yl)methyl)-4-ethoxy-1-methyl-N-(methylsulfonyl)-1H-benzo[d]imidazole-6-carboxamide] | 10 to 100 nM | > 85% | –
Cn1c(CN2CCC(c3cccc(OCc4ccc(C#N)cc4F)n3)CC2)nc2c(OC(C)(C)CF)cc(C(=O)O)cc21 [Compound 160, 2-((4-(6-((4-Cyano-2-fluorobenzyl)oxy)pyridin-2-yl)piperidin-1-yl)methyl)-4-((1-fluoro-2-methylpropan-2-yl)oxy)-1-methyl-1H-benzo[d]imidazole-6-carboxylic acid] | 100 to 1000 nM | > 85% | –
Cn1c(CN2CCC(c3cccc4c3O[C@@H](c3ccc(C#N)cc3F)CO4)CC2)nc2c(OC(F)F)cc(C(=O)O)cc21 [Compound 123, (S)-2-((4-(3-(4-Cyano-2-fluorophenyl)-2,3-dihydrobenzo[b][1,4]dioxin-5-yl)piperidin-1-yl)methyl)-4-(difluoromethoxy)-1-methyl-1H-benzo[d]imidazole-6-carboxylic acid] | 10 to 100 nM | > 85% | –
COCCc1nc(C(=O)O)cc2c1nc(CN1CCC(c3cccc(OCc4ccc(C#N)cc4F)n3)CC1)n2C [Compound 107, 2-((4-(6-((4-cyano-2-fluorobenzyl)oxy)pyridin-2-yl)piperidin-1-yl)methyl)-4-(2-methoxyethyl)-1-methyl-1H-imidazo[4,5-c]pyridine-6-carboxylic acid] | > 1000 nM | 50 to 85% | –
Cn1c(CN2CC=C(c3cccc(OCc4ccc(Cl)cc4F)c3)CC2)nc2c(OC(F)F)cc(C(=O)O)cc21 [Compound 159, 2-((4-(3-((4-Chloro-2-fluorobenzyl)oxy)phenyl)-3,6-dihydropyridin-1(2H)-yl)methyl)-4-(difluoromethoxy)-1-methyl-1H-benzo[d]imidazole-6-carboxylic acid] | 100 to 1000 nM | > 85% | –
CCOc1cc(C(=O)O)cc2c1nc(CN1CCC(c3cccc(OCc4ccc(Cl)cc4F)n3)CC1)n2C [Compound 358, 2-((4-(6-((4-Chloro-2-fluorobenzyl)oxy)pyridin-2-yl)piperidin-1-yl)methyl)-4-ethoxy-1-methyl-1H-benzo[d]imidazole-6-carboxylic acid] | – | > 85% | –
Cn1c(CN2CCC(c3cccc(OCc4ccc(C5CCCO5)cc4F)n3)CC2)nc2c(OC(F)F)cc(C(=O)O)cc21 (stereo not shown) [Compound 177, 4-(Difluoromethoxy)-2-((4-(6-((2-fluoro-4-(tetrahydrofuran-2-yl)benzyl)oxy)pyridin-2-yl)piperidin-1-yl)methyl)-1-methyl-1H-benzo[d]imidazole-6-carboxylic acid] | > 1000 nM | 50 to 85% | –
Cn1c(CN2CCC(c3cccc(OCc4ccc(C#N)cn4)n3)CC2)nc2c(OC(F)F)cc(C(=O)O)cc21 [Compound 213, 2-((4-(6-((5-Cyanopyridin-2-yl)methoxy)pyridin-2-yl)piperidin-1-yl)methyl)-4-(difluoromethoxy)-1-methyl-1H-benzo[d]imidazole-6-carboxylic acid] | 100 to 1000 nM | > 85% | –

Results, then the molecule that gave them:

EC50 | Emax [1] | GLP-1R Low Expression Cell Assay Emax (%) [1] | Compound
10 to 100 nM | > 85% | – | CCCOc1cc(C(=O)O)cc2c1nc(CN1CCC(c3cccc(OCc4ccc(C#N)cc4F)n3)CC1)n2C [Compound 319, 2-((4-(6-((4-Cyano-2-fluorobenzyl)oxy)pyridin-2-yl)piperidin-1-yl)methyl)-1-methyl-4-propoxy-1H-benzo[d]imidazole-6-carboxylic acid]
10 to 100 nM | > 85% | – | Cn1c(CN2CCC(c3cccc(OCc4ccc(Cl)cc4F)n3)CC2)nc2c(OCC#N)cc(C(=O)O)cc21 [Compound 202]
10 to 100 nM | > 85% | – | Cc1ccc(COc2cccc(C3CCN(Cc4nc5c(OC(F)F)cc(C(=O)O)cc5n4C)CC3)n2)c(F)c1 [Compound 238, 4-(Difluoromethoxy)-2-((4-(6-((2-fluoro-4-methylbenzyl)oxy)pyridin-2-yl)piperidin-1-yl)methyl)-1-methyl-1H-benzo[d]imidazole-6-carboxylic acid]
10 to 100 nM | > 85% | – | Cn1c(CN2CCC(c3cccc(OCc4ccc(Cl)cc4F)n3)CC2)nc2c(OC(F)F)cc(C(=O)O)nc21 [Compound 328, 2-((4-(6-((4-Chloro-2-fluorobenzyl)oxy)pyridin-2-yl)piperidin-1-yl)methyl)-7-(difluoromethoxy)-3-methyl-3H-imidazo[4,5-b]pyridine-5-carboxylic acid]
< 10 nM | > 85% | – | COc1cc(C(=O)O)cc2c1nc(CN1CCC(c3cccc(OCc4ccc(C#N)c5c4OCC5)n3)CC1)n2C [Compound 283, 2-((4-(6-((4-Cyano-2,3-dihydrobenzofuran-7-yl)methoxy)pyridin-2-yl)piperidin-1-yl)methyl)-4-methoxy-1-methyl-1H-benzo[d]imidazole-6-carboxylic acid]
10 to 100 nM | > 85% | – | CS(=O)(=O)Nc1cc(C(=O)O)cc2c1nc(CN1CCC(c3cccc(OCc4ccc(C#N)cc4F)n3)CC1)n2C[C@@H]1CCO1 [Compound 129, (S)-2-((4-(6-((4-cyano-2-fluorobenzyl)oxy)pyridin-2-yl)piperidin-1-yl)methyl)-4-(methylsulfonamido)-1-(oxetan-2-ylmethyl)-1H-benzo[d]imidazole-6-carboxylic acid]
< 10 nM | > 85% | – | Cn1c(CN2CCC(c3cccc(OCc4ccc(Cl)cc4F)n3)CC2)nc2c(OCCF)cc(C(=O)O)cc21 [Compound 170, 2-((4-(6-((4-Chloro-2-fluorobenzyl)oxy)pyridin-2-yl)piperidin-1-yl)methyl)-4-(2-fluoroethoxy)-1-methyl-1H-benzo[d]imidazole-6-carboxylic acid]
10 to 100 nM | > 85% | – | O=C(O)c1cc(OCF)c2nc(CN3CCC(c4cccc(OCc5ccc(Cl)cc5F)n4)CC3)n(CF)c2c1 [Compound 346, 2-((4-(6-((4-Chloro-2-fluorobenzyl)oxy)pyridin-2-yl)piperidin-1-yl)methyl)-4-(fluoromethoxy)-1-(fluoromethyl)-1H-benzo[d]imidazole-6-carboxylic acid]
< 10 nM | – | ++++ (Emax is >85%) | CC(CF)Oc1cc(C(=O)O)cc2c1nc(CN1CCC(c3cccc(OCc4ccc(Cl)cc4F)n3)CC1)n2C (single isomer, unassigned) [Compound 263]
< 10 nM | > 85% | – | N#Cc1ccc(COc2cccc(C3CCN(Cc4nc5c(OC(F)F)cc(C(=O)O)cc5n4C[C@@H]4CCS4(=O)=O)CC3)n2)c(F)c1 [Compound 110, (S)-2-((4-(6-((4-Cyano-2-fluorobenzyl)oxy)pyridin-2-yl)piperidin-1-yl)methyl)-4-(difluoromethoxy)-1-((1,1-dioxidothietan-2-yl)methyl)-1H-benzo[d]imidazole-6-carboxylic acid]
< 10 nM | > 85% | – | C[C@]1(c2ccc(Cl)cn2)Oc2cccc(C3CCN(Cc4nc5c(O)cc(C(=O)O)cc5n4C[C@@H]4CCO4)CC3)c2O1 [Compound 92, 2-((4-((S)-2-(5-Chloropyridin-2-yl)-2-methylbenzo[d][1,3]dioxol-4-yl)piperidin-1-yl)methyl)-4-hydroxy-1-(((S)-oxetan-2-yl)methyl)-1H-benzo[d]imidazole-6-carboxylic acid]
